Source: patent publication US10294202B2, “Pyrrolidinones as herbicides” (FMC Corporation, priority 2013, dated 2019)

Experiments:
[1] = tested on: pigweed; assay: Test C pre-/postemergence herbicide test; assay type: in vivo, Amaranthus retroflexus
Method in brief: (§1)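 Plants grown and held in a greenhouse for 13 to 15 days post-spray, then rated 0–100 by visual comparison with controls. Pre treatments targeted seeds in loam and sand; post treatments targeted 1- to 4-leaf plants in peat-based potting medium.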

[2] = tested on: lambsquarters; assay: Test C pre-/postemergence herbicide test; assay type: in vivo, Chenopodium album
Method in brief: as §1

[3] = tested on: galium; assay: Test C pre-/postemergence herbicide test; assay type: in vivo, Galium aparine
Method in brief: as §1

[4] = tested on: johnsongrass; assay: Test C pre-/postemergence herbicide test; assay type: in vivo, Sorghum halepense
Method in brief: as §1

[5] = tested on: wheat; assay: Test A pre-/postemergence herbicide test; assay type: in vivo, Triticum aestivum; conditions: Postemergence
Method in brief: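 Approximately 10 days after treatment in the greenhouse, plants were compared with untreated controls and given a 0–100 visual injury rating. Applications: preemergence directed soil spray; postemergence on 2–10 cm plants at the one- to two-leaf stage.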

[6] = tested on: blackgrass; assay: Test C pre-/postemergence herbicide test; assay type: in vivo, Alopecurus myosuroides
Method in brief: as §1

[7] = tested on: waterhemp; assay: Test C pre-/postemergence herbicide test; assay type: in vivo, Amaranthus rudis
Method in brief: as §1

[8] = tested on: wheat (winter wheat); assay: Test C pre-/postemergence herbicide test; assay type: in vivo, Triticum aestivum
Method in brief: as §1

[9] = tested on: sedge, umbrella; assay: Test B flooded paddy test; assay type: in vivo, Cyperus difformis; conditions: 500 g ai/ha, Flood; scale of 0 to 100 where 0 is no effect and 100 is complete control
Method in brief: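 In-water application to pots flooded 3 cm deep, plants at 2-leaf stage. Held in greenhouse 13–15 days at constant flood depth. Scored 0–100 by eye against controls.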

[10] = tested on: crabgrass, large; assay: Test C pre-/postemergence herbicide test; assay type: in vivo, Digitaria sanguinalis
Method in brief: as §1

[11] = tested on: morningglory; assay: Test C pre-/postemergence herbicide test; assay type: in vivo, Ipomoea coccinea
Method in brief: as §1

[12] = Preemergence, 31 g ai/ha, scale 0 to 100, 0 is no effect and 100 is complete control
[13] = Preemergence, 62 g ai/ha, scale 0 to 100 (0 no effect, 100 complete control)
[14] = Preemergence, 125 g ai/ha, scale 0 to 100
[15] = 125 g ai/ha, visual rating on 0 to 100 scale (0 no effect, 100 complete control), approx. 10 days
[16] = 500 g ai/ha, 0 to 100 scale (0 no effect, 100 complete control)
[17] = Postemergence, 31 g ai/ha, scale 0 to 100 (0 no effect, 100 complete control)
[18] = Postemergence, 62 g ai/ha, scale 0 (no effect) to 100 (complete control)
[19] = Postemergence, 125 g ai/ha, scale 0 to 100 (0 no effect, 100 complete control)
[20] = Postemergence, 250 g ai/ha, scale 0 to 100 (0 no effect, 100 complete control)

SMILES: O=C1NCC(c2cccc(Br)c2)C1C(=O)Nc1ccccc1F (centres unmarked) [Compound 307]
- Pigweed plant response rating [1, 12]: 0
- Pigweed plant response rating [1, 13]: 0
- Plant response rating, Pigweed [1, 14]: 40
- Plant response rating (scale of 0 to 100), Pigweed ([1]; Preemergence, 250 g ai/ha): 35
- Lambsquarters plant response rating [2, 12]: 0
- Lambsquarters plant response rating [2, 13]: 0
- Plant response rating, Lambsquarters [2, 14]: 10
- Plant response rating (scale of 0 to 100), Lambsquarters ([2]; Preemergence, 250 g ai/ha): 85
- Galium plant response rating [3, 12]: 0
- Galium plant response rating [3, 13]: 0
- Plant response rating, Galium [3, 14]: 100
- Plant response rating (scale of 0 to 100), Galium ([3]; Preemergence, 250 g ai/ha): 85
- Johnsongrass plant response rating [4, 12]: 0
- Johnsongrass plant response rating [4, 13]: 0
- Plant response rating, Johnsongrass [4, 14]: 0
- Plant response rating (scale of 0 to 100), Johnsongrass ([4]; Preemergence, 250 g ai/ha): 45
- Plant response rating, Wheat [5, 15]: 0
- Plant response rating, Wheat [5, 16]: 30
- Blackgrass plant response rating [6, 12]: 0
- Blackgrass plant response rating [6, 13]: 0
- Plant response rating, Blackgrass [6, 14]: 10
- Plant response rating (scale of 0 to 100), Blackgrass ([6]; Preemergence, 250 g ai/ha): 5
- Waterhemp plant response rating [7, 13]: 0
- Plant response rating, Waterhemp [7, 14]: 0
- Plant response rating (scale of 0 to 100), Waterhemp ([7]; Preemergence, 250 g ai/ha): 0
- Wheat plant response rating [8, 13]: 0
- Plant response rating, Wheat [8, 14]: 5
- Plant response rating (scale of 0 to 100), Wheat ([8]; Preemergence, 250 g ai/ha): 15
- Plant response rating, Sedge, Umbrella [9]: 0
- Crabgrass, Large plant response rating [10, 12]: 90
- Crabgrass, Large plant response rating [10, 13]: 95
- Plant response rating, Crabgrass, Large [10, 14]: 95
- Plant response rating (scale of 0 to 100), Crabgrass, Large ([10]; Preemergence, 250 g ai/ha): 100
- Morningglory plant response rating [11, 12]: 0
- Morningglory plant response rating [11, 13]: 0
- Plant response rating, Morningglory [11, 14]: 0
- Plant response rating (scale of 0 to 100), Morningglory ([11]; Preemergence, 250 g ai/ha): 0

SMILES: O=C1NCC(c2cccc(Br)c2)C1C(=O)Nc1cccc(F)c1F (centres unmarked) [Compound 309]
- Plant response rating, Pigweed [1, 17]: 30
- Plant response rating, Pigweed [1, 18]: 50
- Plant response rating, Pigweed [1, 19]: 50
- Plant response rating, Pigweed [1, 20]: 60
- Pigweed plant response rating [1, 12]: 0
- Pigweed plant response rating [1, 13]: 0
- Plant response rating, Pigweed [1, 14]: 0
- Plant response rating (scale of 0 to 100), Pigweed ([1]; Preemergence, 250 g ai/ha): 40
- Plant response rating, Lambsquarters [2, 17]: 10
- Plant response rating, Lambsquarters [2, 18]: 65
- Plant response rating, Lambsquarters [2, 19]: 65
- Plant response rating, Lambsquarters [2, 20]: 70
- Lambsquarters plant response rating [2, 12]: 0
- Lambsquarters plant response rating [2, 13]: 0
- Plant response rating, Lambsquarters [2, 14]: 30
- Plant response rating (scale of 0 to 100), Lambsquarters ([2]; Preemergence, 250 g ai/ha): 50
- Plant response rating, Galium [3, 17]: 30
- Plant response rating, Galium [3, 18]: 40
- Plant response rating, Galium [3, 19]: 55
- Plant response rating, Galium [3, 20]: 60
- Galium plant response rating [3, 12]: 0
- Galium plant response rating [3, 13]: 0
- Plant response rating, Galium [3, 14]: 75
- Plant response rating (scale of 0 to 100), Galium ([3]; Preemergence, 250 g ai/ha): 85
- Plant response rating, Johnsongrass [4, 17]: 0
- Plant response rating, Johnsongrass [4, 18]: 0
- Plant response rating, Johnsongrass [4, 19]: 0
- Plant response rating, Johnsongrass [4, 20]: 15
- Johnsongrass plant response rating [4, 12]: 10
- Johnsongrass plant response rating [4, 13]: 10
- Plant response rating, Johnsongrass [4, 14]: 60
- Plant response rating (scale of 0 to 100), Johnsongrass ([4]; Preemergence, 250 g ai/ha): 80
- Plant response rating, Wheat [5, 15]: 40
- Plant response rating, Wheat [5, 16]: 60
- Plant response rating, Blackgrass [6, 17]: 0
- Plant response rating, Blackgrass [6, 18]: 0
- Plant response rating, Blackgrass [6, 19]: 5
- Plant response rating, Blackgrass [6, 20]: 5
- Blackgrass plant response rating [6, 12]: 0
- Blackgrass plant response rating [6, 13]: 0
- Plant response rating, Blackgrass [6, 14]: 50
- Plant response rating (scale of 0 to 100), Blackgrass ([6]; Preemergence, 250 g ai/ha): 45
- Plant response rating, Waterhemp [7, 17]: 0
- Plant response rating, Waterhemp [7, 18]: 5
- Plant response rating, Waterhemp [7, 19]: 10
- Plant response rating, Waterhemp [7, 20]: 10
- Waterhemp plant response rating [7, 13]: 0
- Plant response rating, Waterhemp [7, 14]: 30
- Plant response rating (scale of 0 to 100), Waterhemp ([7]; Preemergence, 250 g ai/ha): 40
- Plant response rating, Wheat [8, 17]: 0
- Plant response rating, Wheat [8, 18]: 0
- Plant response rating, Wheat [8, 19]: 0
- Plant response rating, Wheat [8, 20]: 0
- Wheat plant response rating [8, 13]: 0
- Plant response rating, Wheat [8, 14]: 0
- Plant response rating (scale of 0 to 100), Wheat ([8]; Preemergence, 250 g ai/ha): 0
- Plant response rating, Sedge, Umbrella [9]: 0
- Plant response rating, Crabgrass, Large [10, 17]: 0
- Plant response rating, Crabgrass, Large [10, 18]: 30
- Plant response rating, Crabgrass, Large [10, 19]: 60
- Plant response rating, Crabgrass, Large [10, 20]: 65
- Crabgrass, Large plant response rating [10, 12]: 90
- Crabgrass, Large plant response rating [10, 13]: 90
- Plant response rating, Crabgrass, Large [10, 14]: 95
- Plant response rating (scale of 0 to 100), Crabgrass, Large ([10]; Preemergence, 250 g ai/ha): 98
- Plant response rating, Morningglory [11, 17]: 60
- Plant response rating, Morningglory [11, 18]: 10
- Plant response rating, Morningglory [11, 19]: 25
- Plant response rating, Morningglory [11, 20]: 10
- Morningglory plant response rating [11, 12]: 0
- Morningglory plant response rating [11, 13]: 0
- Plant response rating, Morningglory [11, 14]: 10
- Plant response rating (scale of 0 to 100), Morningglory ([11]; Preemergence, 250 g ai/ha): 10

SMILES: O=C1NCC(c2cccc(C(F)(F)F)c2)C1C(=O)Nc1ccccc1Cl (centres unmarked) [Compound 312]
- Plant response rating, Pigweed [1, 17]: 10
- Plant response rating, Pigweed [1, 18]: 20
- Plant response rating, Pigweed [1, 19]: 25
- Plant response rating, Pigweed [1, 20]: 45
- Pigweed plant response rating [1, 12]: 25
- Pigweed plant response rating [1, 13]: 40
- Plant response rating, Pigweed [1, 14]: 45
- Plant response rating (scale of 0 to 100), Pigweed ([1]; Preemergence, 250 g ai/ha): 55
- Plant response rating, Lambsquarters [2, 17]: 65
- Plant response rating, Lambsquarters [2, 18]: 75
- Plant response rating, Lambsquarters [2, 19]: 95
- Plant response rating, Lambsquarters [2, 20]: 55
- Lambsquarters plant response rating [2, 12]: 0
- Lambsquarters plant response rating [2, 13]: 0
- Plant response rating, Lambsquarters [2, 14]: 50
- Plant response rating (scale of 0 to 100), Lambsquarters ([2]; Preemergence, 250 g ai/ha): 60
- Galium plant response rating [3, 12]: 90
- Galium plant response rating [3, 13]: 0
- Plant response rating, Galium [3, 14]: 5
- Plant response rating (scale of 0 to 100), Galium ([3]; Preemergence, 250 g ai/ha): 80
- Plant response rating, Johnsongrass [4, 17]: 0
- Plant response rating, Johnsongrass [4, 18]: 0
- Plant response rating, Johnsongrass [4, 19]: 25
- Plant response rating, Johnsongrass [4, 20]: 0
- Johnsongrass plant response rating [4, 12]: 30
- Johnsongrass plant response rating [4, 13]: 50
- Plant response rating, Johnsongrass [4, 14]: 80
- Plant response rating (scale of 0 to 100), Johnsongrass ([4]; Preemergence, 250 g ai/ha): 85
- Plant response rating, Wheat [5, 15]: 40
- Plant response rating, Wheat [5, 16]: 70
- Plant response rating, Blackgrass [6, 17]: 0
- Plant response rating, Blackgrass [6, 18]: 0
- Plant response rating, Blackgrass [6, 19]: 0
- Plant response rating, Blackgrass [6, 20]: 0
- Blackgrass plant response rating [6, 12]: 40
- Blackgrass plant response rating [6, 13]: 45
- Plant response rating, Blackgrass [6, 14]: 70
- Plant response rating (scale of 0 to 100), Blackgrass ([6]; Preemergence, 250 g ai/ha): 75
- Plant response rating, Waterhemp [7, 17]: 0
- Plant response rating, Waterhemp [7, 18]: 45
- Plant response rating, Waterhemp [7, 19]: 20
- Plant response rating, Waterhemp [7, 20]: 20
- Waterhemp plant response rating [7, 13]: 45
- Plant response rating, Waterhemp [7, 14]: 65
- Plant response rating (scale of 0 to 100), Waterhemp ([7]; Preemergence, 250 g ai/ha): 80
- Plant response rating, Wheat [8, 17]: 0
- Plant response rating, Wheat [8, 18]: 0
- Plant response rating, Wheat [8, 19]: 0
- Plant response rating, Wheat [8, 20]: 0
- Wheat plant response rating [8, 13]: 30
- Plant response rating, Wheat [8, 14]: 60
- Plant response rating (scale of 0 to 100), Wheat ([8]; Preemergence, 250 g ai/ha): 65
- Plant response rating, Sedge, Umbrella [9]: 0
- Plant response rating, Crabgrass, Large [10, 17]: 25
- Plant response rating, Crabgrass, Large [10, 18]: 50
- Plant response rating, Crabgrass, Large [10, 19]: 80
- Plant response rating, Crabgrass, Large [10, 20]: 90
- Crabgrass, Large plant response rating [10, 12]: 90
- Crabgrass, Large plant response rating [10, 13]: 95
- Plant response rating, Crabgrass, Large [10, 14]: 95
- Plant response rating (scale of 0 to 100), Crabgrass, Large ([10]; Preemergence, 250 g ai/ha): 95
- Plant response rating, Morningglory [11, 17]: 0
- Plant response rating, Morningglory [11, 18]: 0
- Plant response rating, Morningglory [11, 19]: 10
- Plant response rating, Morningglory [11, 20]: 20
- Morningglory plant response rating [11, 12]: 0
- Morningglory plant response rating [11, 13]: 35
- Plant response rating, Morningglory [11, 14]: 40
- Plant response rating (scale of 0 to 100), Morningglory ([11]; Preemergence, 250 g ai/ha): 55
